Data taken from patent US4470840A, “1-Triacontanol plant growth stimulator formulations” (Biochemical Research Corporation, priority 1981, dated 1984).

How the values were obtained:
Type in all cases: in vivo
[1] = system: Peas (cv. Dark Skin); assay: Field trial: marketable yield; settings: 1-triacontanol 0.25 mg/liter, pH 8.7; for Fresh wt (marketable yield): per 12 plants per plot
Procedure: (§1) Field trials were conducted in Northern Virginia on plots that were replicated at least five items. Plots consisted of single rows of plants in blocks of three or more plots, with treatments being assigned randomly within each block.
(§2) Plants were fertilized with the fertilizers described in Table 1, and sprayed at air temperatures listed in the same Table. Spraying was usually avoided under windy conditions to avoid drift. In the examples set forth herein, data were treated in a similar manner to those found in the greenhouse trials, with analysis of variance performed for each trial, and the use of a suitable statistical method for the analysis of results, preferably Duncan's multiple range test.

[2] = system: Tomatoes (cv. Ponderosa Red Beefsteak, Red Cherry, Rutgers VF); assay: Field trial: marketable yield and seed size; settings: for Percent increases (size of seeds) / Wt. of treated seed: 100 seeds; for Percent increases (size of seeds) / Wt. of treated seed / Fresh wt. (marketable yield) / Percent increases (marketable yield): 1-triacontanol 0.25 mg/liter; for Wt. of treated seed: control seed 0.32; for Fresh wt. (marketable yield) / Percent increases (marketable yield): pH 9 to 10
Procedure: as §1, §2

[3] = system: Radishes (cv. Champion); assay: Field trial: crop yield; settings: 1-triacontanol 0.25 mg/liter, pH 9.7; for Dry wt. (crop yield): per twenty plants, without foliage
Procedure: as §1, §2

[4] = system: Soybean Seedlings (cv. Prize); assay: Greenhouse trial: dry weight of seedlings; settings: for Dry wt.: per four plants per plot
Procedure: (§3) In general, greenhouse trials were conducted as follows: eight to twelve seeds were sown per pot in Peat-Lite® Mix and received an average of 100 ml of water per day. After plants had the third true leaf (average), the various formulations were applied to the leaves as a fine mist at air temperatures listed in Table 1. Temperatures above 20° C., preferably 25°-30° C., are preferred.
(§4) The 1-triacontanol formulation most generally used consisted of a concentrate containing 5 mg of 1-triacontanol dissolved in 1 liter of acetone, with 20 ml of the concentrate being further dissolved to 1 liter with water having a pH between 8 and 10, with over a pH of 11 also being effective. The pH was adjusted with aqueous NaOH and the concentrate added just prior to spraying.
(§5) When other plant growth substances were added to the formulations, these were added either to the concentrate in the polar organic solvent or alternatively in the aqueous solution, depending on the solubility of the plant growth substance. All metal salts were added to the water used to spray the 1-triacontanol formulations. After spraying, preferably about four to nine days or more, plants were harvested with roots, and fresh weights were obtained. Plants were then dried in an oven, preferably at a temperature below 100° C., until constant weight was obtained, and dry weight values were obtained for each plot. Subtraction of the dry weights from the fresh weights gave the water uptake weights (water content) of each plot. The weights of the above mentioned seedlings were compared to the control weights to obtain the percent increases.
(§6) It is particularly advantageous to arrange each of the potted plants in size range categories corresponding to the number of replications used. For example, if five replications are employed, plants are divided into five size categories, normally measured by the height of the plants. Treatments are then assigned randomly within each block (size category). This removes the variation due to plant size for statistical purposes, as is well practiced in the art. The resulting data is analyzed using any appropriate means, which may include the least significant difference method (L.S.D. method), Duncan's multiple range test, as used here (Biometrics, 11: 1 (1955)), or other means.

[5] = system: Winter Wheat Seedlings (cv. Augusta); assay: Greenhouse trial: dry weight of seedlings; settings: triacontanol 0.1 mg/l, pH 9.0
Procedure: as §3, §4, §5, §6

[6] = system: Watermelon Seedlings (cv. Dixie Queen); assay: Greenhouse trial: dry weight of seedlings; settings: 1-triacontanol 0.1 mg/liter, pH 9.8; for Dry wt.: per 4 plants
Procedure: as §3, §4, §5, §6

[7] = cv. Ponderosa Red Beefsteak, CaCl2 5 mM, no IAA
[8] = cv. Ponderosa Red Beefsteak, CaCl2 50 mM, IAA 0.01 mM
[9] = cv. Ponderosa Red Beefsteak, CaCl2 5 mM, no IAA (Formulation 12)
[10] = cv. Ponderosa Red Beefsteak, CaCl2 50 mM, IAA 10 μM (Formulation 16)
[11] = cv. Ponderosa Red Beefsteak, previous year
[12] = cv. Red Cherry, CaCl2 5 mM, no IAA (Formulation 12)
[13] = cv. Red Cherry, CaCl2 50 mM, IAA 10 μM (Formulation 16)
[14] = cv. Rutgers VF, CaCl2 5 mM, no IAA (Formulation 12)
[15] = cv. Rutgers VF, CaCl2 50 mM, IAA 10 μM (Formulation 16)
[16] = CaCl2 5 mM, 1-triacontanol 0.1 mg/liter
[17] = CaCl2 10 mM, 1-triacontanol 0.1 mg/liter
[18] = CaCl2 20 mM, 1-triacontanol 0.1 mg/liter
[19] = CaCl2 50 mM, NAA 1.5 μM (Formulation 7)

CCCCCCCCCCCCCCCCCCCCCCCCCCCCCCO [1-Triacontanol, 1-triacontanol]
Percent increases (marketable yield) ([1]; CaCl2 10 mM, no IAA): +35% | Fresh wt (marketable yield) ([1]; CaCl2 10 mM, no IAA, control 59): 78 gm | Percent increases (marketable yield) ([1]; CaCl2 15 mM, no IAA): +63% | Fresh wt (marketable yield) ([1]; CaCl2 15 mM, no IAA): 97 gm | Percent increases (marketable yield) ([1]; CaCl2 50 mM, IAA 10 μM): +32% | Fresh wt (marketable yield) ([1]; CaCl2 50 mM, IAA 10 μM): 79 gm | Percent increases (marketable yield) ([1]; CaCl2 75 mM, IAA 10 μM): +69% | Fresh wt (marketable yield) ([1]; CaCl2 75 mM, IAA 10 μM): 100 gm | Percent increases (size of seeds) [2, 7]: +25% | Wt. of treated seed [2, 7]: 0.40 g | Percent increases (size of seeds) [2, 8]: +6% | Wt. of treated seed [2, 8]: 0.34 g | Fresh wt. (marketable yield) [2, 9]: 15353 g | Percent increases (marketable yield) [2, 9]: +38% | Fresh wt. (marketable yield) [2, 10]: 22283 g | Percent increases (marketable yield) [2, 10]: +45% | Early yield over controls [2, 11]: 72% | Late yield over controls [2, 11]: 67% | Fresh wt. (marketable yield) [2, 12]: 5679 g | Percent increases (marketable yield) [2, 12]: +26% | Fresh wt. (marketable yield) [2, 13]: 6225 g | Percent increases (marketable yield) [2, 13]: +38% | Fresh wt. (marketable yield) [2, 14]: 14079 g | Percent increases (marketable yield) [2, 14]: +7% | Fresh wt. (marketable yield) [2, 15]: 20880 g | Percent increases (marketable yield) [2, 15]: +59% | Percent increases (crop yield) ([3]; CaCl2 10 mM, no IAA): 32% | Dry wt. (crop yield) ([3]; CaCl2 10 mM, no IAA, control 93 g): 123 g | Percent increases (crop yield) ([3]; CaCl2 50 mM, IAA 10 μM): +69% | Dry wt. (crop yield) ([3]; CaCl2 50 mM, IAA 10 μM): 157 g | Dry wt. ([4]; CaCl2 3 mM as printed, 1-triacontanol 0.1 mg/liter): 1.96 g | Increase (dry weight) [4, 16]: +17% | Dry wt. [4, 16]: 2.30 g | Increase (dry weight) [4, 17]: +37% | Dry wt. [4, 17]: 2.68 g | Increase (dry weight) [4, 18]: +35% | Dry wt. [4, 18]: 2.65 g | Increase (dry weight) ([4]; line printed as "Control" but with an increase): +7% | Increase (dry weight) ([5]; CaCl2 0 mM, no NAA): 0% | Dry wt. ([5]; CaCl2 0 mM, no NAA, average sum of four plants per plot, control 0.513 g): 0.520 g | Dry wt. ([5]; CaCl2 5 mM, no NAA): 0.502 g | Increase (dry weight) ([5]; CaCl2 5 mM, no NAA): -2% | Dry wt. ([5]; CaCl2 10 mM, no NAA): 0.682 g | Increase (dry weight) ([5]; CaCl2 10 mM, no NAA): +33% | Dry wt. ([5]; CaCl2 15 mM, no NAA): 0.616 g | Increase (dry weight) ([5]; CaCl2 15 mM, no NAA): +20% | Dry wt. ([5]; CaCl2 20 mM, no NAA): 0.682 g | Increase (dry weight) ([5]; CaCl2 20 mM, no NAA): +33% | Dry wt. ([5]; CaCl2 25 mM, no NAA): 0.708 g | Increase (dry weight) ([5]; CaCl2 25 mM, no NAA): +38% | Dry wt. [5, 19]: 0.872 g | Increase (dry weight) [5, 19]: +70% | Percent increases (dry weight) ([6]; CaCl2 5 mM, no IAA): +38% | Dry wt. ([6]; CaCl2 5 mM, no IAA, sprayed Day 36, harvested Day 45, control 0.61 g): 0.84 gm | Percent increases (dry weight) ([6]; CaCl2 10 mM, no IAA): +48% | Dry wt. ([6]; CaCl2 10 mM, no IAA): 0.90 gm | Percent increases (dry weight) ([6]; CaCl2 50 mM, IAA 10 μM): +65% | Dry wt. ([6]; CaCl2 50 mM, IAA 10 μM): 1.01 gm
